Reference: article PMC3525752 (Bioorganic & medicinal chemistry, 2012)

Tests used:
IκB kinase β = details: cited from earlier work
Mtb H37Rv = test: Minimum inhibitory concentration; details: for fold drop/change in potency (MIC) relative to parent compound 1: versus lead 1
Mtb = details: in Mtb; cited from earlier work
[1] = test system: murine macrophage cell line J774.1; test: Cytotoxicity by Alamar Blue, 3 days; format: cell-based; details: J774.1 cells, two-fold dilutions starting at 60 µM

Row | Compound | fold drop/change in potency (MIC) relative to parent compound 1 (Mtb H37Rv) | further results
1 | O=C(Nc1cc(C(F)(F)F)cc(C(F)(F)F)c1)c1cc(Cl)ccc1O [Compound 1, N-(3,5-bis(trifluoromethyl)phenyl)-5-chloro-2-hydroxybenzamide] |  | inhibition of IκB kinase β (IκB kinase β): potent inhibitor
2 | O=C(Nc1cc(C(F)(F)F)cc(C(F)(F)F)c1)c1ccccc1O [Compound 2, N-(3,5-Bis(trifluoromethyl)phenyl)-2-hydroxybenzamide] | 2–4 fold | 
3 | O=C(Nc1cc(C(F)(F)F)cc(C(F)(F)F)c1)c1cc(F)ccc1O [Compound 7, N-(3,5-Bis(trifluoromethyl)phenyl)-5-fluoro-2-hydroxy-benzamide] | 2 fold | 
4 | O=C(Nc1cc(C(F)(F)F)cc(C(F)(F)F)c1)c1cc(Br)ccc1O [Compound 8, N-(3,5-Bis(trifluoromethyl)phenyl)-5-bromo-2-hydroxybenzamide] | 2 fold | 
5 | O=C(Nc1cc(C(F)(F)F)cc(C(F)(F)F)c1)c1cc(I)ccc1O [Compound 9, N-(3,5-Bis(trifluoromethyl)phenyl)-2-hydroxy-5-iodobenzamide] | 2 fold | 
6 | O=C(Nc1ccccc1)c1cc(Cl)ccc1O [Compound 26, 5-Chloro-2-hydroxy-N-phenylbenzamide] | 4–8 fold | 
7 | O=C(Nc1ccccc1C(F)(F)F)c1cc(Cl)ccc1O [Compound 28, 5-Chloro-2-hydroxy-N-(2-trifluoromethyl-phenyl)-benzamide] |  | fold loss in activity on moving single CF3 from meta to ortho (Mtb H37Rv; versus meta-CF3 compound 27): 4–8 fold
8 | O=C(Nc1cccc(F)c1)c1cc(Cl)ccc1O [Compound 34, 5-Chloro-N-(3-fluorophenyl)-2-hydroxybenzamide] | 2–4 fold | 
9 | O=C(Nc1cccc(Br)c1)c1cc(Cl)ccc1O [Compound 35, N-(3-Bromophenyl)-5-chloro-2-hydroxybenzamide] | 2–4 fold | 
10 | O=C(Nc1ccc([N+](=O)[O-])cc1Cl)c1cc(Cl)ccc1O [niclosamide] |  | effect on membrane potential and pH homeostasis (Mtb): disruption of membrane potential and pH homeostasis
11 | N-(3-Bromo-5-(trifluoromethyl)phenyl)-5-chloro-2-hydroxy-benzamide [Compound 74] |  | IC50 [1]: 5.8 µM
